From paper PMC10914731, “Homo-BacPROTAC-induced degradation of ClpC1 as a strategy against drug-resistant mycobacteria” (Nature Communications, 2024)
In brackets after ≈: the same amount, converted by molar mass. Several values for one entry are separate records, joined by “and”; a condition that tells them apart may be missing. Equal entries are not always repeated. Where two headings read alike, the source gives them in different places. *1 amine or outer side, *2 acyl side, *3 side chain or, on linkers, in order; H or OH if unused. Where a SMILES comes first, the peptide text is derived from it. [ ]: non-standard residue; d: D form. X3 = C#CCOc1ccc([C@@H](OC)[C@H](N[*:1])C(=O)[*:2])cc1; X2 = C#CCn1cc(C[C@@H](C(=O)[*:2])N(C)[*:1])c2ccccc21; NMeLeu(5-OH,4R) = CN[C@@H](C[C@@H](C)CO)C(=O)O; Phe(βR-OMe) = CO[C@H](c1ccccc1)[C@H](N)C(=O)O; Trp(1-Me) = Cn1cc(C[C@H](N)C(=O)O)c2ccccc21; NMeL = CN[C@@H](CC(C)C)C(=O)O

Key:
[1] = biological target: ClpC1 NTD protein (M. tuberculosis) (Mycobacterium tuberculosis, UniProt P9WPC9); assay: biochemical; assay type: binding
in vitro = details: human; for efflux ratio: Caco-2
Procedure, shortened: (§1)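 Values are bidirectional Caco-2 apparent permeabilities, P(A−B) and P(B−A), given in 10^-6 cm s-1. The efflux ratio divides P(B−A) by P(A−B), and intrinsic permeability averages the two directions.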

Caco-2 monolayers = assay: in vitro; details: human, Caco-2
Procedure, shortened: as §1

[2] = assay type: in vitro ADME, Mice; details: for Microsomal Stability Mice: clearance in microsomes
Procedure, shortened: (§2)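 Steps: incubate compound at 1 µmol/l with liver microsomes (0.5 mg/ml) plus 1 mM NADPH in pH 7.5 Tris-HCl buffer containing MgCl2 at 37 °C; stop aliquots over time with acetonitrile; centrifuge and measure remaining compound by LC-MS/MS; fit first-order decay and convert half-life to %Qh.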

[3] = assay type: in vitro ADME, Rat; details: for Microsomal Stability Rat: clearance in microsomes
Procedure, shortened: as §2

[4] = Microsomal stability, human; assay type: in vitro ADME; details: for Microsomal Stability Human: clearance in microsomes
Procedure, shortened: as §2

[5] = Hepatocyte stability, mice; assay type: in vitro ADME; details: mouse, pH 7.4
Procedure, shortened: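 Cryopreserved mouse hepatocytes (about 1 million cells/mL, pH 7.4, 50% species serum) incubated with 1 µM compound, DMSO <0.05%, at 37 °C for up to 6 h, sampled at 6 time points. Parent remaining measured by HPLC-MS/MS; half-life converted via well-stirred liver model to clearance as % Qh.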

[6] = assay type: in vitro ADME, Rat; details: rat, pH 7.4
[7] = assay type: in vitro ADME, Human; details: human, pH 7.4
[8] = tested on: M. tuberculosis H37Rv (ATCC 27294); assay: microbe, parasite or virus in culture; assay type: cell-based; details: Mycobacterium tuberculosis
Msm 607 = assay: microbe, parasite or virus in culture; assay type: cell-based
Msm 700084 = assay: microbe, parasite or virus in culture; assay type: cell-based
[9] = SPR dissociation rate constant, read-out: koff ClpC1-NTD Mean ± SD
[10] = SPR, individual measurements (source data), read-out: KD ClpC1-NTD
[11] = SPR, single independent measurements
[12] = SPR, single independent measurements, read-out: koff ClpC1-NTD
[13] = SPR, read-out: ClpC1-NTD KD Mean ± SD
[14] = Caco-2, Caco-2 permeability P (A-B)
[15] = Caco-2, Caco-2 permeability P (B-A)
[16] = M. tuberculosis H37Rv strain, read-out: MIC Mtb H37Rv Mean ± SD
[17] = Mtb H37Rv (Supplementary Table 2), read-out: MIC Mtb
[18] = individual measurements (source data), read-out: Mtb MIC
[19] = single determinations, read-out: Mtb MIC
[20] = Mycolicibacterium smegmatis, 607, read-out: MIC Msm 607
[21] = Mycolicibacterium smegmatis, 607, read-out: Msm 607 MIC, single determinations
[22] = Mycolicibacterium smegmatis, 700084, single determinations, read-out: Msm 700084 MIC
[23] = Mycolicibacterium smegmatis, 700084, read-out: MIC Msm 700084
[24] = SPR (Supplementary Table 1), read-out: KD ClpC1-NTD Mean ± SD
[25] = SPR, single independent measurements, read-out: KD ClpC1-NTD

Sequence of ClpC1 NTD protein (M. tuberculosis) (P9WPC9 1-156, looked up, natural form): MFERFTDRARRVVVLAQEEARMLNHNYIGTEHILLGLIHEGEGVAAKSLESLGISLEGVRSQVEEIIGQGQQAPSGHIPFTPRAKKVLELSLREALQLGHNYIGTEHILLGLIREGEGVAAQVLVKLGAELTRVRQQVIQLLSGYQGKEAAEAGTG

| Compound | koff ClpC1-NTD [1, 11] | koff [1, 12] [s⁻¹] | efflux ratio (in vitro) | Papp A→B (in vitro; Caco-2, CACO permeability PEAB) [×10⁻⁶ cm/s] | Caco-2 Int. Perm (Caco-2 monolayers) | Microsomal Stability Mouse QH [2] | Microsomal Stability Mice [2] [%Qh] | Microsomal Stability Rat QH [3] | Microsomal Stability Rat [3] [%Qh] | Microsomal Stability Human QH [4] | Microsomal Stability Human [4] [%Qh] | Hepatocyte Mice [5] [%Qh] | Hepatocyte Stability Mouse QH [5] [%] | Hepatocyte Rat [6] [%Qh] | MIC [8, 17] [µM] | MIC [8, 19] [µM] | MIC (Msm 607; [20]) [µM] | MIC (Msm 607; [21]) [µM] | MIC (Msm 700084; [22]) [µM] | MIC (Msm 700084; [23]) [µM] | further results |
| --- | --- | --- | --- | --- | --- | --- | --- | --- | --- | --- | --- | --- | --- | --- | --- | --- | --- | --- | --- | --- | --- |
| CCCCCn1cc(C[C@@H]2NC(=O)[C@H](CC(C)C)N(C)C(=O)[C@H](C(C)C)NC(=O)[C@H]([C@H](OC)c3ccccc3)NC(=O)[C@H](C)NC(=O)[C@H](C[C@@H](C)CO)N(C)C(=O)[C@H](Cc3cn(C)c4ccccc34)N(C)C2=O)nn1 [Compound 25] | 1E-1 1E-1 1/s | 0.1 | 25.1 | 0.87 | 11.4 | 79.2% and 83.9% | 82 | 62% and 62.6% | 62 | >88.4 >88.4% | > 88 | 21 | 27.872 | 16 | 6.3 (≈ 6.55 µg/mL) | 6.25 (≈ 6.5 µg/mL) | 12.5 (≈ 13 µg/mL) | 12.5 (≈ 13 µg/mL) | 12.5 (≈ 13 µg/mL) | 12.5 (≈ 13 µg/mL) | koff [1, 9]: 0.1 s⁻¹; Kd [1, 10]: 26.2 nM and 26 nM; Kd [1, 13]: 26.1 ± 0.1 nM; Papp A→B (in vitro; [14]): 0.9 ×10⁻⁶ cm/s; Papp B→A (in vitro; [15]): 22 ×10⁻⁶ cm/s; Permeability Correlation P (A-B) (Caco-2 monolayers): > 3; Permeability Correlation Ratio (Caco-2 monolayers): > 1.5; Hepatocyte Human [7]: 30 %Qh; MIC [8, 16]: 6.3 µM (≈ 6.55 µg/mL); MIC [8, 18]: 6.25 µM (≈ 6.5 µg/mL) |
| C#CCn1cc(C[C@H]2C(=O)N(C)[C@@H](C[C@@H](C)CO)C(=O)N[C@@H](C)C(=O)N[C@@H]([C@H](OC)c3ccccc3)C(=O)N[C@@H](C(C)C)C(=O)N(C)[C@@H](CC(C)C)C(=O)N[C@@H](C(C)C)C(=O)N2C)c2ccccc21 [Compound 26] (cyclo(A[Phe(βR-OMe)]V[NMeL]V[X2][NMeLeu(5-OH,4R)])) | 4E-2 4E-2 1/s | 0.04 | 2.2 | 25 | 24.0 | >88.400% | > 88 | >87.900% | > 88 | >88.400% | > 88 | 67 | 66.557 | 68 | 6.3 (≈ 6.02 µg/mL) | 6.25 (≈ 5.97 µg/mL) | 6.3 (≈ 6.02 µg/mL) | 6.25 (≈ 5.97 µg/mL) | 12.5 (≈ 11.9 µg/mL) | 12.5 (≈ 11.9 µg/mL) | koff [1, 9]: 0.04 s⁻¹; Kd [1, 10]: 17 nM and 12.3 nM; Kd [1, 13]: 15 ± 3 nM; Papp B→A (in vitro; Caco-2, CACO permeability PEBA): 49 ×10⁻⁶ cm/s; Influence of N-methylation on permeability (Caco-2 monolayers): 9.3; Permeability Correlation P (A-B) (Caco-2 monolayers): 13.6; Permeability Correlation Ratio (Caco-2 monolayers): 9.3; Hepatocyte Stability Rat QH [6]: 67.861%; Hepatocyte Stability Human QH [7]: 43.919%; MIC [8, 16]: 6.3 µM (≈ 6.02 µg/mL); MIC [8, 18]: 6.25 µM (≈ 5.97 µg/mL) |
| C#CCOc1ccc([C@@H](OC)[C@@H]2NC(=O)[C@H](C)NC(=O)[C@H](C[C@@H](C)CO)N(C)C(=O)[C@H](Cc3cn(C)c4ccccc34)NC(=O)[C@H](C(C)C)NC(=O)[C@H](CC(C)C)N(C)C(=O)[C@H](C(C)C)NC2=O)cc1 [SI-38] (cyclo(A[X3]V[NMeL]V[Trp(1-Me)][NMeLeu(5-OH,4R)])) | 0.04 s⁻¹ | 0.06 | – | – | 9.1 | 72.800% | 73 | 58.700% | 59 | 83.600% | 84 | 15 | 15.001 | 37 | 1.6 (≈ 1.55 µg/mL) | 1.56 (≈ 1.52 µg/mL) | 25 (≈ 24.3 µg/mL) | 25 (≈ 24.3 µg/mL) | 12.5 (≈ 12.1 µg/mL) | 12.5 (≈ 12.1 µg/mL) | Kd [1, 24]: 5.6 ± 0.6 nM; Kd [1, 25]: 6 nM and 5.19 nM; Papp B→A (in vitro; Caco-2, CACO permeability PEBA): 18 ×10⁻⁶ cm/s; Papp A→B (in vitro; [14]): < 0.2 ×10⁻⁶ cm/s; Papp B→A (in vitro; [15]): 18 ×10⁻⁶ cm/s; Hepatocyte Stability Rat QH [6]: 37.130%; Hepatocyte Human [7]: 19 %Qh; Hepatocyte Stability Human QH [7]: 19.299% |
| CO[C@H](c1ccccc1)[C@@H]1NC(=O)[C@H](C)NC(=O)[C@H](C[C@@H](C)CO)N(C)C(=O)[C@H](Cc2cn(C)c3ccccc23)NC(=O)[C@H](CCC(=O)N(C)C)NC(=O)[C@H](CC(C)C)N(C)C(=O)[C@H](C(C)C)NC1=O [SI-74] (cyclo(A[Phe(βR-OMe)]V[NMeL]E(NMe2)[Trp(1-Me)][NMeLeu(5-OH,4R)])) | – | – | > 6 | < 0.46 | 1.7 | 83.700% | 84 | 60.700% | 85 | 85.000% | 61 | 38 | 37.632 | 49 | 3.1 (≈ 3.02 µg/mL) | 3.12 (≈ 3.04 µg/mL) | 0.8 (≈ 0.779 µg/mL) | 0.78 (≈ 0.76 µg/mL) | 6.25 (≈ 6.09 µg/mL) | 9.4 ± 4.4 (≈ 9.16 µg/mL) | Kd [1, 24]: 4 ± 2 nM; Kd [1, 25]: 3.28 nM and 5.58 nM; Papp B→A (in vitro; Caco-2, CACO permeability PEBA): 3.4 ×10⁻⁶ cm/s; Papp A→B (in vitro; [14]): < 0.5 ×10⁻⁶ cm/s; Hepatocyte Stability Rat QH [6]: 48.537%; Hepatocyte Human [7]: 12 %Qh; Hepatocyte Stability Human QH [7]: 12.386%; MIC (Msm 700084; single determinations, read-out: Msm 700084 MIC): 12.500 µM (≈ 12.2 µg/mL) |
